Test results as given in US5434052A, “Complementation assay for drug screening” (Microgenics Corporation, priority 1993, dated 1995).

T1: (Homo sapiens, UniProt P05543)
T1 construct: purchased Protus Laboratories, South San Francisco, CA
T1 sequence (P05543 21-415): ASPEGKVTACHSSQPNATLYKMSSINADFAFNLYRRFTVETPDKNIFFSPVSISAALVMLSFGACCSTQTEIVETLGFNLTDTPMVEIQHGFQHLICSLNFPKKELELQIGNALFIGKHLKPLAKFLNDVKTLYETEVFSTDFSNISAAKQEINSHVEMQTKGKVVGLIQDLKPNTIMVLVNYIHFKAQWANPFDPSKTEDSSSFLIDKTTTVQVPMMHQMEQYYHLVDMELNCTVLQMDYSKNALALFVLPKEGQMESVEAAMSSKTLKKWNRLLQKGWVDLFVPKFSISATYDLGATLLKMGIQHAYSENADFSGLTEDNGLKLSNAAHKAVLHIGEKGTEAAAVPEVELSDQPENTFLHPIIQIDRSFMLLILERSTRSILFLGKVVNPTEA

B1: TBG: purified TBG from Protus Laboratories, diluted in PBS (protein, UniProt P05543 21-415, looked up)
Thyroxine-binding globulin: T1 sequence (P05543 21-415)

Key:
[1] = target: T2, bovine Folate Binding Protein (Bos taurus, UniProt P02702); test: Inhibition of ED14-Folate conjugate with folate binding protein; competition by folic acid sample, β-galactosidase complementation; parameters: dose or concentration left out as unconfirmed; settings: folate binding protein diluted approximately 1:2500
T2 construct: purchased Biochemical Inc., Englewood, Colo
T2 sequence (P02702 20-241): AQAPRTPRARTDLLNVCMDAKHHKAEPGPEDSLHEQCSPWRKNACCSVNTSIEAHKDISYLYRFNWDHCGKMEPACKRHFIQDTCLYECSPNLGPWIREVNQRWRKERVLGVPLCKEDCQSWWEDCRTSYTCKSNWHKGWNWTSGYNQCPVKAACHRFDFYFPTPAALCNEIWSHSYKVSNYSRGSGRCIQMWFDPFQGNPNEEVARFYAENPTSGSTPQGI
Protocol: Binding Protein Reagent consists of bovine Folate Binding Protein (Biochemical Inc., Englewood, Colo.) diluted approximately 1:2500 in 150 mM potassium phosphate, 50 mM sodium borate, 1% BSA (B12-Grade BSA, Sigma, St. Louis, Mo.), 1% Lubrol and 20 mM sodium azide, pH 7.0. ED14-Folate Conjugate/Substrate Reagent contains approximately 6.3 nM ED-Folate, 1.0 mg/ml OCNPG (o-chloro-p-nitrophenol galactopyranoside), 100 mM sodium phosphate, 150 mM potassium phosphate, 10 mM ethylene glycol tetraacetic acid, 2.5 mM dithiothreitol, 20 mM sodium azide, 0.05% Tween 20 with 0.05 mM dithiothreitol, pH 7.0. EA Reagent consists of a recombinant protein resembling the carboxyl-terminal end of β-galactosidase in 100 mM sodium phosphate, 150 mM potassium phosphate, 10 mM ethylene glycol tetraacetic acid, 5 mM magnesium acetate, 20 mM sodium azide, 0.05% Tween 20 with 0.05 mM dithiothreitol pH 7.0. EA concentration is approximately 2.2 μM. The assay procedure involves mixing of 300 μl of folic acid sample with 100 μl of binding protein reagent and incubation for 15 min at room temperature. This becomes the pretreated sample. An instrument (clinical chemistry analyzer) is programmed to deliver 30 μl of pretreated sample with 100 μl of ED-Folate reagent for 2 to 5 min at 37° C. This is followed by the addition of 220 μl of EA reagent to the reaction mixture by the instrument and the enzyme rate is read by absorbance change at […]. The following table indicates a typical assay performance.

[2] = target: T1, (Homo sapiens, UniProt P05543); test: Inhibition of ED4-T4 conjugate by thyroxin binding globulin, β-galactosidase complementation; settings: 18 nM ED4-T4; for Observed Enzyme Rate: 420 nM, 37° C.
Protocol: Buffer=20 mM NaPO4 10 mM EGTA, 2 mM MgOAc, 3.6% Glycerol, 5 mM Sucrose, 20 mM NaN3, pH 7.0
Reagent=5U EA/Test or 31.25 U/ml of EA in EA Buffer
Buffer=20 mM NaPO4, 10 mM EGTA, 6.25 mg/ml ONPG, 0.05% Tween/DTT, 20 mM NaN3, pH 7.0
Reagent=18 nM ED4-T4 system concentration or 112.5 nM ED4-T4 in ED reagent buffer
Machine Program Parameters:
The receptor was purified TBG from Protus Laboratories, South San Francisco, CA diluted in PBS.

Molecule | % Inhibition of ED14-Folate Conjugate ([1]; folate in sample 20) | Observed Enzyme Rate ([1]; folate in sample 20) | % Inhibition of ED14-Folate Conjugate ([1]; folate in sample 200) | Observed Enzyme Rate ([1]; folate in sample 200) | % Inhibition ([2]; TBG receptor 18.3 μg/ml) | Observed Enzyme Rate ([2]; TBG receptor 18.3 μg/ml) | % Inhibition ([2]; TBG receptor 55.0 μg/ml) | Observed Enzyme Rate ([2]; TBG receptor 55.0 μg/ml)
Nc1nc2ncc(CNc3ccc(C(=O)N[C@@H](CCC(=O)O)C(=O)O)cc3)nc2c(=O)[nH]1 [Folate, Folic acid] | 18.8% | 290 | 0.0% | 357 |  |  |  | 
B1 |  |  |  |  | 22% | 367 mA/min | 68% | 154 mA/min
